From patent US8580921B2, “Protein nanorings” (University of Minnesota, priority 2005, dated 2013)

B1: DHFR^2-3: E. coli DHFR-DHFR fusion protein with 3 amino acid linker (GGT) (protein)
chain: MISLIAALAVDRVIGMENAMPWNLPADLAWFKRNTLNKPVIMGRHTWESIGRPLPGRKNIILSSQPGTDDRVTWVKSVDEAIAACGDVPEIMVIGGGRVYEQFLPKAQKLYLTHIDAEVEGDTHFPDYEPDDWESVFSEFHDADAQNSHSYCFEILERRGGTMISLIAALAVDRVIGMENAMPWNLPADLAWFKRNTLNKPVIMGRHTWESIGRPLPGRKNIILSSQPGTDDRVTWVKSVDEAIAACGDVPEIMVIGGGRVYEQFLPKAQKLYLTHIDAEVEGDTHFPDYEPDDWESVFSEFHDADAQNSHSYCFEILERR
modifications: left off: small tags and cut ends
B2: DHFR^2-1G: E. coli DHFR-DHFR fusion protein with 1 (G) amino acid linker (protein)
chain: MISLIAALAVDRVIGMENAMPWNLPADLAWFKRNTLNKPVIMGRHTWESIGRPLPGRKNIILSSQPGTDDRVTWVKSVDEAIAACGDVPEIMVIGGGRVYEQFLPKAQKLYLTHIDAEVEGDTHFPDYEPDDWESVFSEFHDADAQNSHSYCFEILERRGMISLIAALAVDRVIGMENAMPWNLPADLAWFKRNTLNKPVIMGRHTWESIGRPLPGRKNIILSSQPGTDDRVTWVKSVDEAIAACGDVPEIMVIGGGRVYEQFLPKAQKLYLTHIDAEVEGDTHFPDYEPDDWESVFSEFHDADAQNSHSYCFEILERR
modifications: left off: small tags and cut ends
notes: E. coli DHFR-DHFR fusion protein with 1 (G) amino acid linker
B3: DHFR^2-13: two wild-type E. coli DHFR modules separated by a 13 (GLG5LVPRGT) amino acid linker (protein)
chain: MISLIAALAVDRVIGMENAMPWNLPADLAWFKRNTLNKPVIMGRHTWESIGRPLPGRKNIILSSQPGTDDRVTWVKSVDEAIAACGDVPEIMVIGGGRVYEQFLPKAQKLYLTHIDAEVEGDTHFPDYEPDDWESVFSEFHDADAQNSHSYCFEILERRGLGGGGGLVPRGTMISLIAALAVDRVIGMENAMPWNLPADLAWFKRNTLNKPVIMGRHTWESIGRPLPGRKNIILSSQPGTDDRVTWVKSVDEAIAACGDVPEIMVIGGGRVYEQFLPKAQKLYLTHIDAEVEGDTHFPDYEPDDWESVFSEFHDADAQNSHSYCFEILERR
modifications: left off: small tags and cut ends

How the values were obtained:
[1] = system: 39 human tumor cell lines; details: cited from earlier work
Daudi cells = details: 2 hr incubation; cited from earlier work
[2] = given orally to mice; cited from earlier work
[3] = humans; cited from earlier work
[4] = SEC of isolated DHFR^2 oligomers after storage or dilution; assay type: physicochemical; details: oligomers with MTX^2-C9 isolated by SEC (dimers, tetramers, octamers), stored 2 weeks at 4° C.
Experimental: SEC was employed to initially assess the degree of DHFR^2 induced oligomerization by MTX^2. The purified DHFR^2-13 (10 uM) and MTX^2-C9 were mixed at a range of stoichiometries, allowed to equilibrate for one hour, and assayed by size exclusion chromatography on a Superdex G75 Column (Amersham).
Assemblies of this size, however, approach or exceed the exclusion limit of the G75 matrix, preventing definitive assignment of the molecular weight and oligomer number. The dimeric fraction increased at the expense of the larger oligomers with time, becoming the dominant species. […] For DHFR^2-3, tetramers were the dominant species, further increasing with time. […] In addition, in contrast to the expected result from linear oligomers, no observable change in composition was observed when oligomer samples were dilution to a concentration of 5 nM.

Molecule | IC50 (Daudi cells) | oligomer composition on re-injection after storage [4] | also measured
auristatin | 4.6 ± 4.3 nM | – | IC50 [1]: 3.2 ± 0.51 nM
COc1cccc2c1C(=O)c1c(O)c3c(c(O)c1C2=O)C[C@@](O)(C(=O)CO)C[C@@H]3O[C@H]1C[C@H](N)[C@H](O)[C@H](C)O1 [doxorubicin] | 225 ± 35 nM | – | –
COc1cc(Cc2cnc(N)nc2N)cc(OC)c1OC [trimethoprim] | – | – | LD50 [2]: greater than 3 grams/kg; half-life [3]: 11 h
B1 | – | no change in the oligomer composition | –
B2 | – | no change in the oligomer composition | –
B3 | – | no change in the oligomer composition | –
